# Laboratory results taken from patent publication US20110171193A1, “COMPOSITIONS AND METHODS FOR TREATING PULMONARY HYPERTENSION” (THE BOARD OF TRUSTEES OF THE UNIVERSITY OF ILLINOIS, priority 2008, published 2011).
# Assays:
# [1] = test system: Cav1−/− mice; test: RVSP in Cav1−/− mice with PH; type: in vivo, mouse; conditions: 8 month old Cav1−/− mice; 1 mg/ml in drinking water for 5 wk
# Description: RVSP was determined as follows. Briefly, following anesthesia, mice were prepared for catheterization. A 1.4 F pressure transducer catheter (Millar Instruments) was carefully inserted via the right external jugular vein into the right ventricle to obtain measurements of RVSP using the Acknowledge software (Biopac Systems, Inc.). To determine lung vascular resistance, mice were anesthetized and prepared for perfusion. Pulmonary arterial (Ppa) and venous (Pv) pressures were monitored continuously through the pulmonary arterial and left atrial cannula, which were connected to a pressure transducer. […] Ppa was measured at steady-state and was plotted against the flow, which was measured by weighing the effluent collected over a one-minute period. […]
# To determine whether pharmacological inhibition of eNOS in Cav1^−/− mice can reverse PH, we administered N-Nitro-L-Arginine Methyl Ester (L-NAME), a NOS inhibitor, to Cav1^−/− mice following onset of PH. […] Data are expressed as mean±SD (n=5-7). *, P=0.023 WT versus Cav1^−/−;**, P=0.015 Cav-L versus Cav1^−/−; #, P>0.5 Cav-D versus Cav1^−/−. […] Data are expressed as mean±SD (n=5-7). *, P=0.002 WT versus Cav1^−/−; **, P=0.013 Cav-L versus Cav1^−/−; #, P=0.8 Cav-D versus Cav1^−/−.
# Hemodynamic Measurements. RVSP was determined with a 1.4 F pressure transducer catheter (Millar Instruments) and the Acknowledge software (Biopac Systems, Inc.). […]
# [2] = test system: Cav1−/− mice; test: Lung histology and muscularized distal pulmonary arteries in Cav1−/− mice; type: in vivo, mouse; conditions: 8 month old Cav1−/− mice; 1 mg/ml in drinking water for 5 wk
# Description: Following PBS perfusion, the lung tissues were fixed for 5 min by instillation of 10% PBS-buffered formalin through trachea catheterization at a transpulmonary pressure of 15 cm H2O. After tracheal ligation, harvested lungs were fixed with 10% PBS-buffered formalin overnight at […] with agitation. After paraffin processing, the tissues were cut into semithin 4 to […] thick, and stained with either H & E for histological analysis or an antibody against nitrotyrosine (Upstate Biotechnology) for immunohistochemistry. Immunostaining was developed with a Vectastain ABC kit (Vector Laboratories). Histology and Imaging. Lung tissues were fixed and processed for H & E staining and immunofluorescent staining. for 5 min by instillation of 10% PBS-buffered formalin through trachea catheterization at a transpulmonary pressure of 15 cm H2O, and then overnight at 4° C. with agitation. After paraffin processing, the tissues were cut into semi-thin 4 to […] thick, and stained with H & E for histological analysis. For immunofluorescent staining, antigen retrieval was performed by incubating the slides in 10 mM sodium citrate (pH 6.0) at 95° C. for 10 min. […] The anti-a-SMA-positive pulmonary arterial vessels per field (200×) were counted based on the diameter (<40 μm versus>40 μm). Twenty fields per section were randomly identified and counted. […]
# [3] = test system: human PKG-1a; test: Myc-tagged PKG-1a tyrosine mutants treated with peroxynitrite: kinase assay and tyrosine nitration; type: biochemical; conditions: in contrast to wildtype PKG-1
# Description: Identification of Nitrated Tyrosine Residues of PKG-1a. Tyrosine residue was mutated to Phenylalanine by site-directed mutagenesis following manufacture's instruction (Stratagene). Myc-tagged wild-type and mutant PKG-1a were overexpressed in human lung microvascular endothelial cells and cell lysates were then immunoprecipitated with anti-Myc for 4 hr at RT. […] Following 14 min incubation in 50 mM K2HPO4 buffer at RT, kinase activity was then measured as described above.
# (§1) To address the role of peroxynitrite in the mechanism of the observed impairment of PKG activity, we treated human pulmonary artery smooth muscle cells with 3-morpholinosydnonimine (SIN-1), the superoxide and NO donor that forms peroxynitrite simultaneously (30). […] FIG. 9A relates to dose-dependent impairment of PKG activity by peroxynitrite. Purified […] (Promega) was incubated with peroxynitrite at indicated concentrations for 14 min at RT or with DETA NONOate (NONOate) for 30 min in dark at RT. Kinase activity was then assayed. Data is expressed mean+/−SD (n=3). *, P<0.05 versus control (0 μM). FIG. 9B relates to screening of PKG-1a mutants with in vitro kinase assay. […] PKG activity was expressed as pmoles/min/μg cell lysates. […] Data are expressed as mean±SD (n=3), *, P<0.05 versus either PKG-1a mutant. […]
# [4] = target: T1, purified PKG-1 (Bos taurus, UniProt P00516); test: In vitro kinase assay of purified PKG-1 after peroxynitrite or DETA NONOate; type: biochemical; conditions: peroxynitrite at indicated concentrations, 14 min at RT
# T1 construct: purchased Promega
# T1 sequence (P00516 1-671): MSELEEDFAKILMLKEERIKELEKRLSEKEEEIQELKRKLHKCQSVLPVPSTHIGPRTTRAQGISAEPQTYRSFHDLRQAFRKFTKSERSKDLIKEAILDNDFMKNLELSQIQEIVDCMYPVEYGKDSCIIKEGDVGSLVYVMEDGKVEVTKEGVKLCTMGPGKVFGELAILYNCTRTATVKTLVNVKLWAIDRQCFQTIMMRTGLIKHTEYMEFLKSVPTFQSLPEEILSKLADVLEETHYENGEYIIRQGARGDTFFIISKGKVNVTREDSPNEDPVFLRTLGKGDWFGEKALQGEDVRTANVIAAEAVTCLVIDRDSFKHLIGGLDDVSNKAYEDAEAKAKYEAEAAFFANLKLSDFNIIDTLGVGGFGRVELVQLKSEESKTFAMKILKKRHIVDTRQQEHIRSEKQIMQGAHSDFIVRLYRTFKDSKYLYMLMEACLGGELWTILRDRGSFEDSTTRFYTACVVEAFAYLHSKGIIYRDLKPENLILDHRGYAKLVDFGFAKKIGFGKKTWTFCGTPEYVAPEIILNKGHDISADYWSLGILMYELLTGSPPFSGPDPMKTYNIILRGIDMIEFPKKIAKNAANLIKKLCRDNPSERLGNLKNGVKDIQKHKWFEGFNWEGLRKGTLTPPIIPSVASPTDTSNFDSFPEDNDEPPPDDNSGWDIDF
# Description: PKG Kinase Assay. In vitro activity of PKG was determined by measuring the transfer of the [g-^32P] phosphate group of ATP to the specific PKG substrate, BPDEtide (Calbiochem) in the absence or presence of exogenous 2.5 mM cGMP as described in Example 13. PKG activity is expressed as picmoles of ^32P incorporated into PKG substrate per min per microgram protein.
# as §1, with “assay. At 48 hr post-transfection, myc-tagged WT and PKG-1a mutants were immunoprecipitated with anti-myc beads and aliquoted for incubation with either peroxynitrite (100 μM) or the same amount of 0.1 N NaOH only (CTL).” for “assay.”
SMILES,RVSP [1],Number of muscularized distal pulmonary arteries [2],"PKG activity following peroxynitrite treatment ([3]; PKG-1a with mutation of tyrosine residue 345 or 549, peroxynitrite 100 μM)","Tyrosine nitration following peroxynitrite treatment ([3]; PKG-1 mutants (tyrosine 345 or 549), peroxynitrite 250 μM, 14 min at RT)",PKG activity [4]
COC(=O)[C@H](N)CCCN=C(N)N[N+](=O)[O-] [D-NAME],no effect,no effect,,,
O=NOO [peroxynitrite],,,no impairment of PKG activity,diminished tyrosine nitration,decreased PKG activity in a concentration-dependent manner
